Measured values taken from patent publication US9587471B2, “Controlling bioavailability of nutrient additions in subsurface formations” (E I DU PONT DE NEMOURS AND COMPANY, priority 2008, dated 2017).

Key:
[1] = tested on: Pseudomonas stutzeri strain LH4:15 (ATCC PTA-8823); test: Anaerobic growth and survival: biocidal versus biostatic inhibition; format: cell-based; conditions: for change in Log cell number: day 0 vs day 7, anaerobic; for Final anaerobic vial OD: starting OD600 = 0.05
Description: In this invention, the anaerobic growth and survival was tested in 20 ml crimp-capped anaerobic vials, using a complete nutrient medium of the following composition: Na2HPO4.7H2O, 1.4 g/L, KH2PO4, 0.69 g/L, NH4Cl, 0.5 g/L, MgSO4.7H2O, 0.1/L g, SL-10 trace metals, 10 ml, NaCl, 7.5 g/L, NaHCO3, 7.2 g/L, sodium nitrate, 12 g/L, Na lactate, 7 g/L, yeast extract, 10 mg/L, pH 7.3-7.8.
The anaerobic growth and survival was tested as outlined above. […] Vials were inoculated using an overnight aerobic culture of Pseudomonas stutzeri strain LH4:15 (ATCC PTA-8823) in Luria Bertani medium (LB, Mediatech Inc., Herndon, Va.,) at a final OD600 of 0.05. Within 2 hours of inoculation, serial dilutions from each treatment vial were made into aerobic LB medium to determine the cell numbers at Day 0. After approximately 24 hours cell numbers were estimated by noting the highest positive dilution based on the presence or absence of turbidity in dilutions of 10^−1 to 10^−11 in the serial dilution plates. Cell numbers on Day 0 and Day 7 were measured to obtain a survival estimate during inhibitor exposure.

[2] = Partition coefficient in an oil/water system; format: physicochemical
Description: In this Example a contribution to inhibitor dissipation made by adsorption of the inhibitor into the oil phase may be observed. For example, nitrate as a nitrogen source and electron acceptor and glucose as a growth substrate, each at 25 g/L concentration, may be added in combination to the injection water stream. In addition, benzalkonium chloride may be added to the inhibited nutrient composition. The composition may be pumped into the oil well formation for 5 hours. The industrial biocide inhibits growth of microbial populations in the oil well formation independent of the added nutrient concentrations. As illustrated in Example 2 until the benzalkonium chloride reaches a concentration of <0.1 g/L, microbial growth is inhibited. Using physical parameters common in oil well formations found in unconsolidated sandstone regions of the North Slope, dispersion modeling determines that it will take approximately fourteen days for flow dispersion to dilute benzalkonium chloride to approximately <0.1 g/L. In addition, it may be empirically determined, through laboratory experimentation, that the partition coefficient for benzalkonium chloride in an oil/water system is approximately 10. Therefore, rather than adding benzalkonium chloride at 2% concentration based on dispersion modeling, it is added at a 10% initial concentration to counter act losses due to adsorption. […]

[3] = tested on: Pseudomonas stutzeri strain LH4:15 (ATCC PTA-8823); test: Aerobic growth response (turbidity) to varying concentrations of industrial preservatives; format: cell-based;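 for growth (turbidity): single plus means slight turbidity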
Description: Typically cells were grown at a temperature in the range of about 25° C. to about 40° C. in an appropriate medium.
Pseudomonas stutzeri strain LH4:15 (ATCC PTA-8823) was grown as outlined in Example 1. Various preservatives commonly used in the food, cosmetic, and water treatment industries were tested for their inhibitory effect at various concentrations (Table 2). Growth was monitored visually and positive growth was indicated by moderate to heavy turbidity.

With Benzalkonium chloride the “change in Log cell number” value ([1]; 0.01 g/L) was 0, the “Final anaerobic vial OD” value ([1]; 0.01 g/L) was 0.12 and the “change in Log cell number” value ([1]; 0.04 g/L) was 0. The “Final anaerobic vial OD” value ([1]; 0.04 g/L) was 0.01, the “change in Log cell number” value ([1]; 0.08 g/L) was −4 and the “Final anaerobic vial OD” value ([1]; 0.08 g/L) was 0.02. The “change in Log cell number” value ([1]; 0.1 g/L) was “Dead”, the “Final anaerobic vial OD” value ([1]; 0.1 g/L) was 0.02 and the “change in Log cell number” value ([1]; 0.5 g/L) was “Dead”. The “Final anaerobic vial OD” value ([1]; 0.5 g/L) was 0.06, the “change in Log cell number” value ([1]; 1 g/L) was “Dead” and the “Final anaerobic vial OD” value ([1]; 1 g/L) was 0.32. For the same substance, the “concentration that killed the cells on Day 0” value ([1]; anaerobic vials) was ≥ 0.1 g/L, the partition coefficient [2] was “approximately 10” and the “growth (turbidity)” value ([3]; 0.0001 g/L) was “++”. The “growth (turbidity)” value ([3]; 0.001 g/L) was “++”, the “growth (turbidity)” value ([3]; 0.005 g/L) was “++” and the “growth (turbidity)” value ([3]; 0.01 g/L) was “++”. For the same substance, the “growth (turbidity)” value ([3]; 0.1 g/L) was “−”, the “growth (turbidity)” value ([3]; 0.5 g/L) was “−” and the “growth (turbidity)” value ([3]; 1 g/L) was “−”. For the same substance, the “concentration that must be reached before inhibition of microbial growth ends” value ([3]; stated 'as illustrated in Example 2') was < 0.1 g/L.
